Patent US12441746B2, “HCK inhibitors for the treatment of fibrosis and cancer” (Icahn School of Medicine at Mount Sinai, priority 2020, dated 2025)
pIC50: −log10 of the molar value. Read-outs that look alike come from different tables or passages of the source.

Assays:
HK2 cells = experiment: mRNA expression of fibrosis markers in HK2 cells; format: cell-based
Src-family kinase (SFK) = experiment: Inhibition of all Src-family kinase (SFK) activity; format: biochemical; details: FIG. 3
HCK kinase = target: T1, HCK kinase (Homo sapiens, UniProt P08631); experiment: HCK activity inhibition, radioactive kinase assay (Reaction Biology Corp); format: biochemical
T1 construct: purchased Reaction Biology Corp
T1 sequence (P08631 whole entry): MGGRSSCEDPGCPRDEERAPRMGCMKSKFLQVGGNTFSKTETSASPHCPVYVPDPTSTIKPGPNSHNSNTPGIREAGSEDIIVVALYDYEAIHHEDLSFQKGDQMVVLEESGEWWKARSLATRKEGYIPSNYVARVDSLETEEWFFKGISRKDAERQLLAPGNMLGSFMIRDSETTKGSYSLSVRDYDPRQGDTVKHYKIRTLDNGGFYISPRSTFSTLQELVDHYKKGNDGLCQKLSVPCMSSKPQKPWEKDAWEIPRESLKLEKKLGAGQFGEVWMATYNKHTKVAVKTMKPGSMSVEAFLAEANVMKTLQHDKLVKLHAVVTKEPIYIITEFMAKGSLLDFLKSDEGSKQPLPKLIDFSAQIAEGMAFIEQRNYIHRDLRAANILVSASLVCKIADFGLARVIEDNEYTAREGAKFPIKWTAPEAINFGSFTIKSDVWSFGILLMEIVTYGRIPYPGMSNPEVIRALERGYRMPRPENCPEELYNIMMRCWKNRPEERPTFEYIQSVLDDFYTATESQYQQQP
Experimental: HCK activity inhibition efficiency for the inhibitors. Inhibiting efficiency is performed in Reaction Biology with Corp P32 radioactive kinase assay, comparing compounds of the invention with dasatinib for HCK, Bcr-Abl and other binding kinases identified in the reference. Briefly, HCK kinase was delivered into the substrate solution and gently mixed, then compounds in DMSO were added into the kinase reaction mixture by Acoustic technology (Echo550; Nano liter range), and incubated for 20 minutes at room temperature. 33P-ATP was delivered into the reaction mixture to initiate the reaction. The kinase reaction was incubated for 2 hours at room temperature. Reactions were spotted onto P81 ion exchange paper, and detected kinase activity was measured by filter-binding method.

Cytotoxicity = format: cell-based; details: at 50 uM (data not shown)
[1] = test system: SMAD3 transcriptional activity in HEK293 cells; experiment: SMAD3 transcriptional activity in HEK293 cells; format: cell-based
murine UUO model = experiment: Murine unilateral ureteral obstruction (UUO) kidney fibrosis model; format: in vivo, Male C57BL/6 mice; details: 25 mg/kg by gavage daily, 7-days post-UUO
Experimental: Inhibiting Hck activity in vivo with Example 2 attenuates kidney fibrosis in murine UUO model: Unilateral ureteral obstruction (UUO) was performed on Male C57BL/6 mice (˜10 weeks age). Mice were perfused 7-days post UUO. The inhibitory activity of the compounds of the invention as compared to controls was determined. The UUO mice were treated with Example 2 at 25 mg/kg or vehicle (n=5) by gavage daily started one day prior to the surgery to 7-days post-surgery. […] Compounds of the invention are promising HCK-specific inhibitors.
FIG. 1 depicts mRNA—levels of pro-fibrotic markers at 7-days post-UUO by RT-PCR (normalized to GAPDH), from whole cortices of control and UUO kidneys of Example 2 and PBS-fed animals. […] Values are mean±SEM. *P<0.05.

[2] = compared with vehicle-treated mice

selectivity among Src-family kinases (Src-family kinase (SFK)): selectivity to HCK inhibition
pIC50 (HCK kinase; HCK, read-out: IC50): > 4.70
pIC50 (HCK kinase; radioactive kinase assay, 33P-ATP, 2 hours at room temperature, read-out: IC50 for HCK activity): ~4.92
SMILES: Clc1cc(Cl)c2c(c1)C=C(C1=NOB(c3ccccc3)N1)C(c1ccccc1)O2 (centres unmarked) [Example 2, 3-(6,8-dichloro-2-phenyl-2H-chromen-3-yl)-5-phenyl-4,5-dihydro-1,2,4,5-oxadiazaborole]
mRNA expression of fibrosis markers (HK2 cells; FIG. 4): reduced
mRNA expression of COL1A1 (HK2 cells; HK2 cells): reduced
mRNA expression of FN1 (HK2 cells; HK2 cells): reduced
mRNA expression of SNAIL (HK2 cells; HK2 cells): reduced
cytotoxicity (Cytotoxicity): no cytotoxicity
SMAD3 transcriptional activity [1]: reduced
renal fibrosis in the UUO kidneys (Masson and collagen I staining) (murine UUO model): reduced renal fibrosis
RTEC injury in the UUO kidney (H&E staining) (murine UUO model; compared to vehicle-treated mice): reduced RTEC injury
expression of Col1a1 in the UUO kidney (murine UUO model; [2]): significantly decreased
expression of FSP-1 in the UUO kidney (murine UUO model; [2]): significantly decreased
expression of Fibronectin in the UUO kidney (murine UUO model; [2]): significantly decreased
